Active and inactive are the calls of the source. How the calls were made is not given here.
System: CCRIS mutagenicity, Ames/micronucleus/aberration tests
Test: CCRIS mutagenicity studies
Details: Test System: AMES SALMONELLA TYPHIMURIUM
[1] = Strain/Indicator: TA97, Metabolic Activation: NONE, Method: PREINCUBATION
[2] = Strain/Indicator: TA98, Metabolic Activation: NONE, Method: PREINCUBATION
[3] = Strain/Indicator: TA100, Metabolic Activation: NONE, Method: PREINCUBATION
[4] = Strain/Indicator: TA1535, Metabolic Activation: NONE, Method: PREINCUBATION

CCCCCCC(C)OC(=O)C[S][Sn]([CH2]CCC)([S]CC(=O)OC(C)CCCCCC)[S]CC(=O)OC(C)CCCCCC (centres undefined)
mutagenic call (Strain/Indicator: TA97, Metabolic Activation: HAMSTER, LIVER, S-9, AROCLOR 1254 (10 OR 30%), Method: PREINCUBATION): inactive; negative
mutagenic call [1]: inactive; negative
mutagenic call (Strain/Indicator: TA97, Metabolic Activation: RAT, LIVER, S-9, AROCLOR 1254 (10 OR 30%), Method: PREINCUBATION): inactive; negative
mutagenic call (Strain/Indicator: TA98, Metabolic Activation: HAMSTER, LIVER, S-9, AROCLOR 1254 (10 OR 30%), Method: PREINCUBATION): inactive; negative
mutagenic call [2]: inactive; negative
mutagenic call (Strain/Indicator: TA98, Metabolic Activation: RAT, LIVER, S-9, AROCLOR 1254 (10 OR 30%), Method: PREINCUBATION): inactive; negative
mutagenic call (Strain/Indicator: TA100, Metabolic Activation: HAMSTER, LIVER, S-9, AROCLOR 1254 (10 OR 30%), Method: PREINCUBATION): inactive; negative
mutagenic call [3]: inactive; negative
mutagenic call (Strain/Indicator: TA100, Metabolic Activation: RAT, LIVER, S-9, AROCLOR 1254 (10 OR 30%), Method: PREINCUBATION): inactive; negative
mutagenic call (Strain/Indicator: TA1535, Metabolic Activation: HAMSTER, LIVER, S-9, AROCLOR 1254 (10 OR 30%), Method: PREINCUBATION): inactive; negative
mutagenic call [4]: inactive; negative
mutagenic call (Strain/Indicator: TA1535, Metabolic Activation: RAT, LIVER, S-9, AROCLOR 1254 (10 OR 30%), Method: PREINCUBATION): inactive; negative

CCc1ccc(/C=C/c2ccc([N+](=O)[O-])cc2)cc1
mutagenic call (Strain/Indicator: TA98, Metabolic Activation: NONE, Method: STANDARD PLATE): active; positive
mutagenic call (Strain/Indicator: TA98, Metabolic Activation: RAT, LIVER, S-9, AROCLOR, Method: STANDARD PLATE): active; positive
mutagenic call (Strain/Indicator: TA100, Metabolic Activation: NONE, Method: STANDARD PLATE): active; positive
mutagenic call (Strain/Indicator: TA100, Metabolic Activation: RAT, LIVER, S-9, AROCLOR, Method: STANDARD PLATE): active; positive

Clc1cccc(C(Cl)(Cl)Cl)n1
mutagenic call (Strain/Indicator: TA97, Metabolic Activation: HAMSTER, LIVER, S-9, AROCLOR 1254 (10%), Method: PREINCUBATION): inactive; negative
mutagenic call [1]: inactive; negative
mutagenic call (Strain/Indicator: TA97, Metabolic Activation: RAT, LIVER, S-9, AROCLOR 1254 (10%), Method: PREINCUBATION): inactive; negative
mutagenic call (Strain/Indicator: TA98, Metabolic Activation: HAMSTER, LIVER, S-9, AROCLOR 1254 (5%), Method: PREINCUBATION): inactive; negative
mutagenic call (Strain/Indicator: TA98, Metabolic Activation: HAMSTER, LIVER, S-9, AROCLOR 1254 (10%), Method: PREINCUBATION): active; positive
mutagenic call (Strain/Indicator: TA98, Metabolic Activation: HAMSTER, LIVER, S-9, AROCLOR 1254 (30%), Method: PREINCUBATION): active; positive
mutagenic call [2]: inactive; negative
mutagenic call (Strain/Indicator: TA98, Metabolic Activation: RAT, LIVER, S-9, AROCLOR 1254 (5%), Method: PREINCUBATION): inactive; negative
mutagenic call (Strain/Indicator: TA98, Metabolic Activation: RAT, LIVER, S-9, AROCLOR 1254 (10%), Method: PREINCUBATION): active; positive
mutagenic call (Strain/Indicator: TA98, Metabolic Activation: RAT, LIVER, S-9, AROCLOR 1254 (30%), Method: PREINCUBATION): active; positive
mutagenic call (Strain/Indicator: TA100, Metabolic Activation: HAMSTER, LIVER, S-9, AROCLOR 1254 (5 OR 10%), Method: PREINCUBATION): inactive; negative
mutagenic call (Strain/Indicator: TA100, Metabolic Activation: HAMSTER, LIVER, S-9, AROCLOR 1254 (30%), Method: PREINCUBATION): active; positive
mutagenic call [3]: inactive; negative
mutagenic call (Strain/Indicator: TA100, Metabolic Activation: RAT, LIVER, S-9, AROCLOR 1254 (5 OR 10%), Method: PREINCUBATION): inactive; negative
mutagenic call (Strain/Indicator: TA100, Metabolic Activation: RAT, LIVER, S-9, AROCLOR 1254 (30%), Method: PREINCUBATION): inactive; negative
mutagenic call (Strain/Indicator: TA1535, Metabolic Activation: HAMSTER, LIVER, S-9, AROCLOR 1254 (10%), Method: PREINCUBATION): inactive; negative
mutagenic call [4]: inactive; negative
mutagenic call (Strain/Indicator: TA1535, Metabolic Activation: RAT, LIVER, S-9, AROCLOR 1254 (10%), Method: PREINCUBATION): inactive; negative

From PubChem BioAssay AID1259407 (Chemical Carcinogenesis Research Information System (CCRIS), 2018)
